Test results taken from PubChem BioAssay (NCI).
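Cultured in 96-well plates, cells were exposed to test compound for 48 hours across five concentrations. The concentration for full growth arrest is given as TGI.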

How the values were obtained:
Assay in all cases: NCI tumour cell line growth inhibition, 48 h
HCT-116 colon = tested on: HCT-116 colon
CCRF-CEM leukemia = tested on: CCRF-CEM leukemia
HL-60(TB) leukemia = tested on: HL-60(TB) leukemia
HS 578T breast = tested on: HS 578T breast
LOX IMVI melanoma = tested on: LOX IMVI melanoma
COLO 205 colon = tested on: COLO 205 colon
M14 melanoma = tested on: M14 melanoma
MDA-N = tested on: MDA-N
UACC-62 melanoma = tested on: UACC-62 melanoma
A498 renal = tested on: A498 renal
MCF7 breast = tested on: MCF7 breast
HCT-15 colon = tested on: HCT-15 colon
MDA-MB-231 breast = tested on: MDA-MB-231 breast
MOLT-4 leukemia = tested on: MOLT-4 leukemia
UACC-257 melanoma = tested on: UACC-257 melanoma
SK-MEL-28 melanoma = tested on: SK-MEL-28 melanoma
UO-31 renal = tested on: UO-31 renal
IGROV1 ovarian = tested on: IGROV1 ovarian
MDA-MB-435 = tested on: MDA-MB-435
SF-268 CNS = tested on: SF-268 CNS
SF-295 CNS = tested on: SF-295 CNS
SR leukemia = tested on: SR leukemia
OVCAR-3 ovarian = tested on: OVCAR-3 ovarian
EKVX NSCLC = tested on: EKVX NSCLC
HOP-62 NSCLC = tested on: HOP-62 NSCLC
786-0 renal = tested on: 786-0 renal
SK-OV-3 ovarian = tested on: SK-OV-3 ovarian
ACHN renal = tested on: ACHN renal
HOP-92 NSCLC = tested on: HOP-92 NSCLC
SK-MEL-5 melanoma = tested on: SK-MEL-5 melanoma
TK-10 renal = tested on: TK-10 renal
U251 CNS = tested on: U251 CNS
BT-549 breast = tested on: BT-549 breast
SF-539 CNS = tested on: SF-539 CNS
SN12C renal = tested on: SN12C renal
SNB-75 CNS = tested on: SNB-75 CNS
SW-620 colon = tested on: SW-620 colon
DU-145 prostate = tested on: DU-145 prostate
A549 NSCLC = tested on: A549 NSCLC
SK-MEL-2 melanoma = tested on: SK-MEL-2 melanoma
NCI/ADR-RES ovarian = tested on: NCI/ADR-RES ovarian
NCI-H23 lung = tested on: NCI-H23 lung
T-47D breast = tested on: T-47D breast
RPMI-8226 leukemia = tested on: RPMI-8226 leukemia
NCI-H460 lung = tested on: NCI-H460 lung
CAKI-1 renal = tested on: CAKI-1 renal
KM12 colon = tested on: KM12 colon
OVCAR-5 ovarian = tested on: OVCAR-5 ovarian
HT29 colon = tested on: HT29 colon
SNB-19 CNS = tested on: SNB-19 CNS
K-562 leukemia = tested on: K-562 leukemia
PC-3 prostate = tested on: PC-3 prostate
NCI-H226 lung = tested on: NCI-H226 lung
OVCAR-8 ovarian = tested on: OVCAR-8 ovarian

`Cc1[nH]c2[nH]c(=S)nc(NC(N)=S)c2c1Cc1ccccc1` was tested, and the TGI (HCT-116 colon) was > 100 µM, the TGI (CCRF-CEM leukemia) was > 100 µM and the TGI (HL-60(TB) leukemia) was 57.4 µM. It also gave a TGI (HS 578T breast) of 60.6 µM, a TGI (LOX IMVI melanoma) of 55.4 µM and a TGI (COLO 205 colon) of 34 µM. For the same compound, the TGI (M14 melanoma) was > 100 µM, the TGI (MDA-N) was 69.1 µM and the TGI (UACC-62 melanoma) was > 100 µM. For the same compound, the TGI (A498 renal) was > 100 µM, the TGI (MCF7 breast) was > 100 µM and the TGI (HCT-15 colon) was > 100 µM. For the same compound, the TGI (MDA-MB-231 breast) was > 100 µM, the TGI (MOLT-4 leukemia) was > 100 µM and the TGI (UACC-257 melanoma) was > 100 µM. For the same compound, the TGI (SK-MEL-28 melanoma) was 48.6 µM, the TGI (UO-31 renal) was > 100 µM and the TGI (IGROV1 ovarian) was > 100 µM. The TGI (MDA-MB-435) was 36.6 µM, the TGI (SF-268 CNS) was > 100 µM and the TGI (SF-295 CNS) was > 100 µM. The TGI (SR leukemia) was 36.2 µM, the TGI (OVCAR-3 ovarian) was 77.4 µM and the TGI (EKVX NSCLC) was > 100 µM. The TGI (HOP-62 NSCLC) was > 100 µM, the TGI (786-0 renal) was 76.1 µM and the TGI (SK-OV-3 ovarian) was > 100 µM. For the same compound, the TGI (ACHN renal) was > 100 µM, the TGI (HOP-92 NSCLC) was > 100 µM and the TGI (SK-MEL-5 melanoma) was 26.1 µM. The TGI (TK-10 renal) was > 100 µM, the TGI (U251 CNS) was > 100 µM and the TGI (BT-549 breast) was 36.3 µM. For the same compound, the TGI (SF-539 CNS) was > 100 µM, the TGI (SN12C renal) was > 100 µM and the TGI (SNB-75 CNS) was 76.4 µM. For the same compound, the TGI (SW-620 colon) was > 100 µM, the TGI (DU-145 prostate) was > 100 µM and the TGI (A549 NSCLC) was > 100 µM. The TGI (SK-MEL-2 melanoma) was > 100 µM, the TGI (NCI/ADR-RES ovarian) was > 100 µM and the TGI (NCI-H23 lung) was > 100 µM. The TGI (T-47D breast) was 89.4 µM, the TGI (RPMI-8226 leukemia) was 55.3 µM and the TGI (NCI-H460 lung) was > 100 µM. For the same compound, the TGI (CAKI-1 renal) was > 100 µM, the TGI (KM12 colon) was 40.7 µM and the TGI (OVCAR-5 ovarian) was > 100 µM. For the same compound, the TGI (HT29 colon) was 52 µM, the TGI (SNB-19 CNS) was > 100 µM and the TGI (K-562 leukemia) was > 100 µM. The TGI (PC-3 prostate) was > 100 µM, the TGI (NCI-H226 lung) was > 100 µM and the TGI (OVCAR-8 ovarian) was > 100 µM.
